# Measured values taken from patent publication US20070286867A1, “Combination Therapy” (Fusion Antibodies Limited, priority 2003, published 2007).
# Where a SMILES comes first, the peptide text is derived from it. The star is where a group is joined. Cbz = O=C(OCc1ccccc1)*; CH2F = FC*
# Legend:
# [1] = test system: HCT116p53^+/+ cells; assay: MTT cell viability assay in HCT116 p53 wild-type cells; format: cell-based, human; settings: range of drug concentrations 24 hours, then CH-11 200 ng/ml for 48 hours
# Procedure: (§3) Cell Viability Assays. Cell viability was assessed by MTT (3-(4,5-dimethylthiazol-2-yl)-2,5-diphenyltetrazolium bromide, Sigma) assay (12). […] MTT (0.5 mg/ml) was then added to each well and the cells incubated at 37° C. for a further 3 hours. The culture medium was removed and formazan crystals reabsorbed in 200 μL DMSO. Cell viability was determined by reading the absorbance of each well at 570 nm using a 96-well microplate reader (Molecular Devices, Wokingham, England). […] Twenty microlitres (20 μL) MTT (5 mg/ml) was then added to each well and the cells incubated at 37° C. for a further 3 hours. The culture medium was removed and formazan crystals reabsorbed in 200 μL DMSO. Cell viability was determined by reading the absorbance of each well at 570 nm using an ELISA plate reader (Molecular Devices).
# (§4) Statistical Analyses. The nature of the interaction between the chemotherapeutic drugs and CH-11 was determined by calculating the R index (RI), which was initially described by Kern and later modified by Romaneli (13, 14). […] Synergism is then defined as an RI of greater than unity. […] To further assess the statistical significance of the interactions, the inventors designed a univariate ANOVA analysis using the SPSS software package. This was an additive model based on the null hypothesis that there was no interaction between the drugs.
# [2] = test system: HCT116p53^−/− cells; assay: MTT cell viability assay in HCT116 p53 null cells; format: cell-based, human; settings: range of drug concentrations 24 hours, then CH-11 200 ng/ml for 48 hours
# Procedure: as §3, §4
# [3] = test system: Fas; assay: Western blot of Fas expression in HCT116 p53 wild-type cells; format: cell-based, human; settings: 5-FU 5 μM, CPT-11 5 μM, Oxaliplatin 1 μM for 48 hours
# Procedure: (§1) Western Blotting. Western blots were performed as previously described (6). The Fas/CD95, Bc1-2 and BID (Santa Cruz Biotechnology, Santa Cruz, Calif.), caspase 8 (Oncogene Research Products, Darmstadt, Germany), p53 (Santa Cruz Biotechnology), and PARP (Pharmingen, BD Biosciences, Oxford, England) mouse monoclonal antibodies were used in conjunction with a horseradish peroxidase (HRP)-conjugated sheep anti-mouse secondary antibody (Amersham, Little Chalfont, Buckinghamshire, England). FasL rabbit polyclonal antibody (Santa Cruz Biotechnology) was used in conjunction with an HRP-conjugated donkey anti-rabbit secondary antibody (Amersham). TS sheep monoclonal primary antibody (Rockland, Gilbertsville, Pa.) was used in conjunction with an HRP-conjugated donkey anti-sheep secondary antibody (Serotech, Oxford, England). Equal loading was assessed using a β-tubulin mouse monoclonal primary antibody (Sigma).
# [4] = test system: Fas/CD95 mRNA; assay: Real-time PCR of Fas/CD95 mRNA in HCT116 p53 null cells; format: cell-based, human; settings: IC60 72hrs doses, 24 and 48 hours
# Procedure: Real-time PCR was performed using a DNA Engine Opticon 2 (MJ Research Incorporated). TheDyNAmo SYBR Green qPCR kit (Finnzymes) was used as the fluoresent dye specific for double-stranded DNA. PCR conditions consisted of an initial denaturation step of 95° C. for 10 minutes, followed by 39 cycles of 94° C. for 10 secs, 55° C. for 20 secs and 72° C. for 20 secs, with a final extension of 72° C. for 10 minutes. A melting curve was included at the end of each run to check the specificity of the amplified product. Experiments were performed in triplicate to ensure reproducibility of the technique. On completion of the run the PCR products were run put on a 2% ethidium bromide agarose gel to confirm that their size matched that of the expected amplicon. Primer sequences were as follows: Fas (Forward) […], Fas (Reverse) […], 18S (Forward) […], 18S (Reverse) […].
# [5] = test system: Fas/CD95 receptor; assay: Flow cytometry of Fas/CD95 cell surface expression, HCT116 p53 wild-type; format: cell-based, human; settings: 24 hours
# Procedure: (§2) Where flow cytometric analysis was employed in Examples 1 to 5, the following protocol was used. Cells were seeded at 1×10^5 per well of a 6-well tissue culture plate. […] DNA content of harvested cells was evaluated after propidium iodide staining of cells using the EPICS XL Flow Cytometer (Coulter, Miami, Fla.). Where flow cytometric analysis was employed in Examples 6 to 12, the following protocol was used. Cells were seeded at 1×10^5 per well of a 6-well tissue culture plate. […] DNA content of harvested cells was evaluated after propidium iodide staining of cells using the EPICS XL Flow Cytometer (Coulter). A FITC-conjugated monoclonal anti-human Fas antibody (DAKO) was used to determine cell surface expression of the receptor. Cells were collected and washed twice in PBS before incubating in the antibody (1/20 dilution) at 4° C. for 30 mins. A non-reactive FITC-conjugated mouse IgG1 antibody was used as a negative control for each sample. Following incubation the cells were washed twice with PBS containing 2% bovine serum albumin and fixed in 0.3 mL 4% paraformaldehyde. Samples were then analysed on the EPICS XL Flow Cytometer (Coulter).
# [6] = test system: Fas receptor; assay: Fas/CD95 cell surface expression in p53 mutant H630 cell line (Example 11); format: cell-based; settings: 48 hours; 5-FU 5 μM, CPT-11 5 μM, Oxaliplatin 1 μM
# Procedure: as §2
# [7] = test system: procaspase 8, BID, PARP; assay: Western blot of procaspase 8, BID and PARP in MCF-7 cells; format: cell-based; settings: 10 μM IETD-fmk, 24 hours
# Procedure: as §1
SMILES,interaction with CH-11 in MTT assay [1],interaction with CH-11 in MTT assay [2],induction of Fas/CD95 protein [3],maximum induction of Fas mRNA [4],induction of Fas/CD95 receptor cell surface expression [5],induction of the Fas receptor [6],effect on PARP cleavage in 5-FU/CH-11 co-treated cells [7],effect on processing of procaspase 8 in cells co-treated with 5-FU and CH-11 [7]
O=C1[O][Pt]2([NH][C@@H]3CCCC[C@H]3[NH]2)[O]C1=O [Oxaliplatin],significant synergy,no synergistic interaction,significant induction,no induction,significantly induce expression,Neither 5-FU nor Oxaliplatin treatment for 48 hours caused significant upregulation,–,–
CC[C@H](C)[C@H](NC(=O)OCc1ccccc1)C(=O)N[C@@H](CCC(=O)OC)C(=O)N[C@H](C(=O)N[C@@H](CC(=O)OC)C(=O)CF)[C@@H](C)O [IETD-fmk] (Cbz-IE(OMe)TD(OMe)-CH2F),–,–,–,–,–,–,inhibited PARP cleavage,blocked processing of procaspase 8
